Test results published in PMC5988692, “AZ304, a novel dual BRAF inhibitor, exerts anti-tumour effects in colorectal cancer independently of BRAF genetic status” (British Journal of Cancer, 2018).
Like-named read-outs stand apart in the source and are kept apart here.

Key:
Assay type in all cases: cell-based
[1] = system: PC-3; assay: Cell proliferation assay (cell panel, MTS); settings: Homo sapiens, 72 h; PC-3, Prostate, BRAF WT, RAS WT, 3 days
Experimental: (§1) The proliferation assays against a cell panel were performed as described in ref.[18] Briefly, the cells were treated with DMSO or multiple concentrations of AZ304 for 3 days. The cell growth was determined using the CellTiter 96 Aqueous One Cell Proliferation Assay (Promega, Madison, WI). […] The assays were done in triplicate across different plates.
(§2) Anti-proliferative activity of AZ304 against a panel of cell lines with different BRAF and RAS genetic status. […] Cell growth was determined by MTS assay.

[2] = system: L-363; assay: Cell proliferation assay (cell panel, MTS); settings: Homo sapiens, 72 h; L-363, Leukemia, BRAF WT, NRAS MT, 3 days
Experimental: as §1, §2

[3] = system: HCT-15; assay: Cell proliferation assay (cell panel, MTS); settings: Homo sapiens, 72 h; HCT-15, Colon, BRAF WT, KRAS MT, 3 days
Experimental: as §1, §2

[4] = system: Melma-3M; assay: Cell proliferation assay (cell panel, MTS); settings: Homo sapiens, 72 h, Melanoma, BRAF V600E, RAS WT, 3 days
Experimental: as §1, §2

[5] = system: U937; assay: Cell proliferation assay (cell panel, MTS); settings: Homo sapiens, U-937, 72 h; U937, Lymphoma, BRAF WT, RAS WT, 3 days
Experimental: as §1, §2

[6] = system: HT29; assay: Cell proliferation assay (cell panel, MTS); settings: Homo sapiens, HT-29, 72 h; HT29, Colon, BRAF V600E HT, RAS WT, 3 days
Experimental: as §1, §2

[7] = system: A375; assay: Cell proliferation assay (cell panel, MTS); settings: Homo sapiens, A-375, 72 h; A375, Melanoma, BRAF V600E HM, RAS WT, 3 days
Experimental: as §1, §2

[8] = system: MDA-MB-231; assay: Cell proliferation assay (cell panel, MTS); settings: Homo sapiens, 72 h; MDA-MB-231, Breast, BRAF G464V HT, KRAS MT, 3 days
Experimental: as §1, §2

[9] = system: NCI-H460; assay: Cell proliferation assay (cell panel, MTS); settings: Homo sapiens, 72 h; NCI-H460, Lung, BRAF WT, KRAS MT, 3 days
Experimental: as §1, §2

[10] = system: SK-MEL-3; assay: Cell proliferation assay (cell panel, MTS); settings: Homo sapiens, SK-MEL3, 72 h; SK-MEL-3, Melanoma, BRAF V600E, RAS WT, 3 days
Experimental: as §1, §2

[11] = system: DU145; assay: Cell proliferation assay (cell panel, MTS); settings: Homo sapiens, DU-145, 72 h; DU145, Prostate, BRAF WT, RAS WT, 3 days
Experimental: as §1, §2

[12] = system: A375pgp; assay: Cell proliferation assay (cell panel, MTS); settings: Homo sapiens, 72 h, Melanoma, BRAF V600E HM, RAS WT, 3 days
Experimental: as §1, §2

[13] = system: COLO205; assay: Cell proliferation assay (cell panel, MTS); settings: Homo sapiens, COLO 205, 72 h; COLO205, Colon, BRAF V600E HT, RAS WT, 3 days
Experimental: as §1, §2

[14] = system: RPMI-8226; assay: Cell proliferation assay (cell panel, MTS); settings: Homo sapiens, RPMI-8226, 72 h; BRAF WT, KRAS MT, 3 days
Experimental: as §1, §2

[15] = system: SK-MEL-31; assay: Cell proliferation assay (cell panel, MTS); settings: Homo sapiens, 72 h; SK-MEL-31, Melanoma, BRAF WT, RAS WT, 3 days
Experimental: as §1, §2

[16] = system: CHL-1; assay: Cell proliferation assay (cell panel, MTS); settings: Homo sapiens, 72 h; CHL-1, Melanoma, BRAF WT, RAS WT, 3 days
Experimental: as §1, §2

[17] = system: MC-F7/mdr+; assay: Cell proliferation assay (cell panel, MTS); settings: Homo sapiens, MCF7, 72 h, Breast, BRAF WT, RAS WT, 3 days
Experimental: as §1, §2

[18] = system: MIAPaCa-2; assay: Cell proliferation assay (cell panel, MTS); settings: Homo sapiens, MIA PaCa-2, 72 h; MIAPaCa-2, Pancreas, BRAF WT, KRAS MT, 3 days
Experimental: as §1, §2

[19] = system: SK-MEL-2; assay: Cell proliferation assay (cell panel, MTS); settings: Homo sapiens, 72 h; SK-MEL-2, Melanoma, BRAF WT, NRAS MT, 3 days
Experimental: as §1, §2

[20] = system: SK-MEL-24; assay: Cell proliferation assay (cell panel, MTS); settings: Homo sapiens, 72 h; SK-MEL-24, Melanoma, BRAF V600E, RAS WT, 3 days
Experimental: as §1, §2

[21] = system: PANC-1; assay: Cell proliferation assay (cell panel, MTS); settings: Homo sapiens, 72 h; PANC-1, Pancreas, BRAF WT, KRAS MT, 3 days
Experimental: as §1, §2

[22] = system: A2058; assay: Cell proliferation assay (cell panel, MTS); settings: Homo sapiens, 72 h; A2058, Melanoma, BRAF V600E HT, RAS WT, 3 days
Experimental: as §1, §2

[23] = system: HCT116; assay: Cell proliferation assay (cell panel, MTS); settings: Homo sapiens, HCT-116, 72 h; HCT116, Colon, BRAF WT, KRAS MT, 3 days
Experimental: as §1, §2

[24] = system: SW620; assay: Cell proliferation assay (cell panel, MTS); settings: Homo sapiens, SW-620, 72 h; SW620, Colon, BRAF WT, KRAS MT, 3 days
Experimental: as §1, §2

[25] = system: A549; assay: Cell proliferation assay (cell panel, MTS); settings: Homo sapiens, 72 h; A549, Lung, BRAF WT, KRAS MT, 3 days
Experimental: as §1, §2

[26] = system: NCI-H23; assay: Cell proliferation assay (cell panel, MTS); settings: Homo sapiens, 72 h; NCI-H23, Lung, BRAF WT, KRAS MT, 3 days
Experimental: as §1, §2

[27] = system: NCI-H1755; assay: Cell proliferation assay (cell panel, MTS); settings: Homo sapiens, 72 h; NCI-H1755, Lung, BRAF A468, RAS WT, 3 days
Experimental: as §1, §2

[28] = system: MDA-MB-468; assay: Cell proliferation assay (cell panel, MTS); settings: Homo sapiens, 72 h; MDA-MB-468, Breast, BRAF WT, RAS WT, 3 days
Experimental: as §1, §2

[29] = system: panel of human cancer cell lines with different BRAF and RAS genetic statuses; assay: Cell proliferation assay, ranges over the cell panel; settings: 72 h, 3 days, read-out: GI50 values, range
Experimental: as §1, §2

`COc1ccc2c(Nc3cc(NC(=O)c4cccc(C(C)(C)C#N)c4)ccc3C)ncnc2c1` [AZ304] was tested, and the GI50 [1] was 6.68 µM, the GI50 [2] was 7.02 µM and the GI50 [3] was 11.5 µM. It also gave a GI50 [4] of 0.1 µM, a GI50 [5] of 9.37 µM and a GI50 [6] of 0.51 µM. The GI50 [7] was 0.23 µM, the GI50 [8] was 1.99 µM and the GI50 [9] was 8.56 µM. It also gave a GI50 [10] of 0.53 µM, a GI50 [11] of 11.7 µM and a GI50 [12] of 0.43 µM. It also gave a GI50 [13] of 0.28 µM, a GI50 [14] of 5.37 µM and a GI50 [15] of 0.43 µM. For the same compound, the GI50 [16] was 8.27 µM, the GI50 [17] was 7.63 µM and the GI50 [18] was 1.16 µM. It also gave a GI50 [19] of 3.91 µM, a GI50 [20] of 0.08 µM and a GI50 [21] of 5.45 µM. For the same compound, the GI50 [22] was 3.82 µM, the GI50 [23] was 2.74 µM and the GI50 [24] was 2.78 µM. For the same compound, the GI50 [25] was 16.7 µM, the GI50 [26] was 3.99 µM and the GI50 [27] was 7.72 µM. The GI50 [28] was 8.83 µM, the GI50 ([29]; mutant BRAF cell lines) was 0.08 to 7.72 µM and the GI50 ([29]; mutant RAS cell lines) was 0.9 to 16.7 µM. For the same compound, the GI50 ([29]; wild type BRAF/RAS cell lines) was 0.43 to 11.7 µM.
